SMILES: CCOC(=O)c1ccc(N)cc1
- solubility (mole fraction) (in cyclohexane, 298.15 K): 0.00107
- solubility (mole fraction) (in cyclohexane, 303.15 K): 0.00134
- solubility (mole fraction) (in cyclohexane, 308.15 K): 0.00185
- solubility (mole fraction) (in cyclohexane, 313.15 K): 0.00225
- solubility (mole fraction) (in isopropyl myristate, 298.15 K): 0.0637
- solubility (mole fraction) (in isopropyl myristate, 303.15 K): 0.0764
- solubility (mole fraction) (in isopropyl myristate, 308.15 K): 0.102
- solubility (mole fraction) (in isopropyl myristate, 313.15 K): 0.121
- solubility (mole fraction) (in n-octanol, 298.15 K): 0.0628
- solubility (mole fraction) (in n-octanol, 303.15 K): 0.0753
- solubility (mole fraction) (in n-octanol, 308.15 K): 0.0916
- solubility (mole fraction) (in n-octanol, 313.15 K): 0.113
- solubility (mole fraction) (in water, 298.15 K): 0.000105
- solubility (mole fraction) (in water, 303.15 K): 0.000126
- solubility (mole fraction) (in water, 308.15 K): 0.000159
- solubility (mole fraction) (in water, 313.15 K): 0.000186

Reference: BigSolDB 2.1
